Test results: patent US20250034165A1, “COMPOUND CONTAINING CYCLOALKYL OR HALOALKYL” (CHIA TAI TIANQING PHARMACEUTICAL GROUP CO., LTD., priority 2021, published 2025)
Read-outs that look alike come from different tables or passages of the source.

How the values were obtained:
[1] = target: EGFR (d746-750/T790M/C797S) (Homo sapiens (Human), UniProt P00533, C797S/DEL746-750/T790M); test: Inhibitory activity for EGFR (d746-750/T790M/C797S) kinase; type: biochemical; conditions: ATP 5 μM; read-out: EGFR(d19/T790M/C797S) (IC50)
Chain of EGFR (d746-750/T790M/C797S) (P00533 other isoform, or with tags, fused parts or gaps T790M/C797S/del 1-694/del 746-750 limits assumed): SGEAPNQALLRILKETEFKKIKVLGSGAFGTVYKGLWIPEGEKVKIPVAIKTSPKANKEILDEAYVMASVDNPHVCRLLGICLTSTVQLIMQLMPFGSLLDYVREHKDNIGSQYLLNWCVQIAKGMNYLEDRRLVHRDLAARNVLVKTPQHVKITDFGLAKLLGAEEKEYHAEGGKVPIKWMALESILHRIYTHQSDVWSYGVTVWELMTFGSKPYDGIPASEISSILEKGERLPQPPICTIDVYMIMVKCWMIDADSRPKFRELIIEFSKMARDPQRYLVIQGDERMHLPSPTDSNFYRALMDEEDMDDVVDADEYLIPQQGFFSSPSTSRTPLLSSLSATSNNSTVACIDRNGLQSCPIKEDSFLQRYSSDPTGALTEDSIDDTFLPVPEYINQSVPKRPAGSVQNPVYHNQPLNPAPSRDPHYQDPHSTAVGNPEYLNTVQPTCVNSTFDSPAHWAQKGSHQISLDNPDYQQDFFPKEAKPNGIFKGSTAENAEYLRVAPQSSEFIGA
Experimental: 1.5 Screening for Inhibitory Activity for EGFR (d746-750/T790M/C797S) Kinase
(§1) A 50 ng/μL EGFR (d746-750/T790M/C797S, BPS) stock solution was diluted with a kinase buffer (50 mM HEPES, 10 mM MgCl2, 2 mM DTT, 1 mM EGTA, 0.01% Tween 20), and 6 μL of 1.67× working solution at 0.05 ng/μL (final concentration: 0.03 ng/μL) was added to each well. Different compounds dissolved in DMSO were added to the wells using a nanoliter pipettor, resulting in the final concentrations of the compounds of 10 nM to 0.0024 nM (4-fold gradient for 7 concentrations in total), and blank control wells (without enzyme) and negative control wells (with enzyme, plus vehicle DMSO) were set, 2 replicate wells for each concentration. After enzyme was reacted with the compound or vehicle for 30 min, 5×ATP at 25 μM (final concentration: 5 μM, Sigma) prepared with a kinase buffer was mixed with 5× substrate at 0.5 μM (final concentration: 0.1 μM, ULight-poly GT, PerkinElmer) at a ratio of 1:1 (v:v), and the mixture was added to each well at 4 μL/well. After being sealed with a film, the plate was incubated at room temperature for 2 h, and then 5 μL of 4×EDTA at 40 mM (final concentration: 10 mM) was added to each well. After the plate was incubated for 5 min at room temperature, 5 μL of 4× detection reagent at 8 nM (final concentration: 2 nM, Eu-anti-phospho-tyrosine antibody, PerkinElmer) was added to each well. After being incubated at room temperature for 1 h, the plate was read using a PerkinElmer Envision multi-mode microplate reader (excitation: 320 nm, emission: 665 nm), and IC50 was calculated by four-parameter fitting.

[2] = tested on: BAF3-EGFR (del19/T790M/C797S) cells; test: Inhibition of proliferation of BAF3-EGFR (Del19/T790M/C797S) cells, CCK-8; type: cell-based; conditions: Ba/F3 EGFR-Del19/T790M/C797S, 72 h, read-out: BAF3(EGFR T790M Del19 C797S) cell inhibitory activity IC50
Experimental: (§2) A flask of BAF3-EGFR (del19/T790M/C797S) cells in the logarithmic growth phase and good conditions was taken, and the cells were collected and added to a centrifuge tube. 20 μL of cells were taken and counted, and the required number of cells (mL) was pipetted and centrifuged at 1200 rpm for 3 min. The supernatant was discarded, and an appropriate amount of plating medium (RPMI medium+10% FBS) was added to adjust the cell density to 1.0×10^5 cells/mL. The cells were seeded on a 96-well plate at 100 μL/well using a multi-channel pipette and cultured in a cell incubator at 37° C., 5% CO2 with saturated humidity. After overnight incubation, compounds were loaded using a nanoliter pipettor, 2 duplicate wells were set for each concentration, and cells without compound added were used as negative controls.
(§3) Inhibition rate (%)=(mean value of negative control group-mean value of experimental group)/(mean value of negative control group−mean value of blank group)×100%.
(§4) A dose-response curve was fitted by four-parameter analysis, with the logarithm of compound concentration serving as abscissa and inhibition rate serving as ordinate, such that IC50 was calculated.

[3] = target: EGFR (d746-750 (d19)/T790M) (Homo sapiens (Human), UniProt P00533, DEL746-750/T790M); test: Inhibitory activity for EGFR (d746-750 (d19)/T790M) kinase; type: biochemical; conditions: ATP 5 μM
Chain of EGFR (d746-750 (d19)/T790M) (P00533 other isoform, or with tags, fused parts or gaps T790M/del 1-668/del 746-750 limits assumed): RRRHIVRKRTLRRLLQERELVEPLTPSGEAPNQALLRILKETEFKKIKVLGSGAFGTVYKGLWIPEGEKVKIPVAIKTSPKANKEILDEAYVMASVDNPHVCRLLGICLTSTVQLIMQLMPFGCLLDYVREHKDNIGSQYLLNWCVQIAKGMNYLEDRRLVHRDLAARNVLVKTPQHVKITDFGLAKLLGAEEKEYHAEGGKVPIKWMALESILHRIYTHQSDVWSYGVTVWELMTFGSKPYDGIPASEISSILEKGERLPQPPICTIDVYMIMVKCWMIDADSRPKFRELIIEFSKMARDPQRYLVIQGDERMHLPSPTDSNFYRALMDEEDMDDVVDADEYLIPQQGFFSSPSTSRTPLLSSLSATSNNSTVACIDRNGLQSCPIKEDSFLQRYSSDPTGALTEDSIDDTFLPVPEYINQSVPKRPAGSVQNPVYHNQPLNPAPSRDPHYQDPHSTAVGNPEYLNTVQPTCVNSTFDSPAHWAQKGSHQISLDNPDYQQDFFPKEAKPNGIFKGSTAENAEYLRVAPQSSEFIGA
Experimental: 1.3 Screening for Inhibitory Activity for EGFR (d746-750 (d19)/T790M) Kinase
as §1, with “(d746-750/T790M, Carna)” for “(d746-750/T790M/C797S, BPS)”, “0.005” for “0.05”, “0.003” for “0.03”

[4] = tested on: BAF3-EGFR (L858R/T790M/C797S) cells; test: Inhibition of proliferation of BAF3-EGFR (L858R/T790M/C797S) cells, CCK-8; type: cell-based; conditions: Ba/F3 EGFR, 72 h, read-out: BAF3(EGFR T790M L858R C797S) cell inhibitory activity IC50
Experimental: as §2, with “EGFR (L858R/T790M/C797S)” for “BAF3-EGFR (del19/T790M/C797S)”, “1.5×10^5” for “1.0×10^5”
as §3, §4

[5] = tested on: PC-9 EGFR-Del19-T790M-C797S cells; test: Inhibition of proliferation of PC-9-EGFR (Del19 T790M C797S) cells, CCK-8; type: cell-based; conditions: 72 h, read-out: PC-9-EGFR (Del19 T790M C797S) cell inhibitory activity IC50
Experimental: PC-9 EGFR-Del19-T790M-C797S cells in the logarithmic growth phase and good conditions were taken, washed with PBS, digested with pancreatin, terminated with a complete medium, collected and added to a centrifuge tube, adjusted to a cell density of 2×10^4 cells/mL, and seeded in a 96-well plate (100 μL/well). Meanwhile, compounds were loaded using a nanoliter pipettor resulting in the final concentrations of the compounds of 1000 nM-0.06 nM, and a control was set, replicate wells for each concentration. After 72 h of incubation in the cell incubator, the assay reagent CCK-8 (manufacturer: Dojindo Laboratories, Beijing; 10 μL/well) was added. After 2 h of incubation in the cell incubator, absorbance was measured at 450 nm on a PerkinElmer Envision microplate reader, and the inhibition rate was calculated.
as §3, §4

[6] = In vivo pharmacokinetics in ICR mice; conditions: for AUC(0-inf) / AUC(0-t) / MRT last / half-life / bioavailability / Cmax / Tmax: mouse, plasma; for AUC(0-t): read-out: AUC(0-t); for MRT last: read-out: MRT(0-t); for half-life: read-out: T½ (converted); for bioavailability: 10 mg/kg, PO vs IV; for Cmax: read-out: Cmax; for Tmax: read-out: Tmax
Experimental: The animals to be tested (ICR mice) were fasted for 12 h before administration and food was provided 4 h after administration, and water was freely drunk before and after the experiment and during the experiment.
After intragastric administration, about 0.1 mL of blood was collected from the orbit at 0 min, 15 min, 30 min, 1 h, 2 h, 4 h, 6 h, 8 h, 10 h, and 24 h. After anticoagulation with EDTA-K2, blood samples were transferred to a centrifuge within 30 min, and centrifuged at 4000 rpm for 10 min at 4° C. to separate the plasma. All the plasma samples were collected and immediately stored at −20° C. for testing.
300 μL of acetonitrile solution containing an internal standard ([…] diazepam) was added to 20 μL of the plasma sample to be tested and a standard curve sample. The mixture was shaken and homogeneously mixed for 5 min, and centrifuged at 12,000 rpm for 10 min. 70 μL of supernatant was taken and diluted with 70 μL of ultrapure water. After being mixed well, 2 μL of the resulting sample was subjected to LC/MS/MS, and a chromatogram was recorded.

Row | IC50 [1] [nM] | IC50 [2] [nM] | IC50 [3] [nM] | IC50 [4] [nM] | Compound | also measured
1 | 0.013 | < 1 | 0.008 | < 5 | Cc1cc2cc(n1)-c1cnn(C)c1OCCC[C@@H](C1CC1)CN1/C(=N/C2=O)Nc2ccc(NC(C)CN(C)C)cc21 (some centres unmarked) [Example 63] | IC50 [5]: < 50 nM
2 | 0.035 | < 1 | 0.01 | < 5 | Cc1cc2cc(n1)-c1cnn(C)c1OCCC[C@@H](C1CC1)CN1/C(=N/C2=O)Nc2ccc(NCCCN3CCCCC3)cc21 [Example 80] | IC50 [5]: < 50 nM
3 | 0.015 | < 1 | 0.0094 | < 5 | Cc1cc2cc(n1)-c1cnn(C)c1OCCC[C@@H](C1CC1)CN1/C(=N/C2=O)Nc2ccc(NCCN)cc21 [Example 58] | –
4 | – | < 1 | – | < 5 | Cc1cc2cc(n1)-c1cnn(C)c1OCCC[C@@H](C1CC1)CN1/C(=N/C2=O)Nc2cc(NCCCN3CCOCC3)ccc21 [Example 74] | CLz ([6]; IV): 70.5 mL/min/kg; AUC(0-inf) ([6]; 1 mg/kg, IV): 236 ng·h/mL; AUC(0-t) ([6]; 1 mg/kg, IV): 233 ng·h/mL; MRT last ([6]; 1 mg/kg, IV): 1.35 h; half-life ([6]; 1 mg/kg, IV): 1.84 h; bioavailability [6]: 35.4%; AUC(0-inf) ([6]; PO, 10 mg/kg intragastric): 830 ng·h/mL; AUC(0-t) ([6]; PO, 10 mg/kg intragastric): 824 ng·h/mL; Cmax ([6]; PO, 10 mg/kg intragastric): 97.6 ng/mL; MRT last ([6]; PO, 10 mg/kg intragastric): 6.42 h; Tmax ([6]; PO, 10 mg/kg intragastric): 0.5 h; half-life ([6]; PO, 10 mg/kg intragastric): 3.18 h; IC50 [5]: < 50 nM
5 | 0.027 | < 1 | 0.019 | < 5 | Cc1cc2cc(n1)-c1cnn(C)c1OCCC[C@@H](C1CC1)CN1/C(=N/C2=O)Nc2ccc(NCCCN(C)C)cc21 [Example 27] | –
6 | 0.024 | < 1 | 0.025 | < 5 | Cc1cc2cc(n1)-c1cnn(C)c1OCCC[C@@H](C1CC1)CN1/C(=N/C2=O)Nc2ccc(OCCN(C)C)cc21 [Example 11] | –
7 | 0.021 | < 1 | 0.014 | < 5 | Cc1cc2cc(n1)-c1cnn(C)c1OCCC[C@@H](C1CC1)CN1/C(=N/C2=O)Nc2cc(NCC3(C)COC3)ccc21 [Example 40] | IC50 [5]: < 50 nM
8 | – | < 1 | – | < 5 | CCC1(Nc2ccc3c(c2)N/C2=N\C(=O)c4cc(C)nc(c4)-c4cnn(C)c4OCCC[C@@H](C4CC4)CN23)COC1 [Example 90] | CLz ([6]; IV): 37.8 mL/min/kg; AUC(0-inf) ([6]; 1 mg/kg, IV): 441 ng·h/mL; AUC(0-t) ([6]; 1 mg/kg, IV): 441 ng·h/mL; MRT last ([6]; 1 mg/kg, IV): 1.65 h; half-life ([6]; 1 mg/kg, IV): 1.58 h; bioavailability [6]: 68.4%; AUC(0-inf) ([6]; PO, 10 mg/kg intragastric): 3020 ng·h/mL; AUC(0-t) ([6]; PO, 10 mg/kg intragastric): 3010 ng·h/mL; Cmax ([6]; PO, 10 mg/kg intragastric): 352 ng/mL; MRT last ([6]; PO, 10 mg/kg intragastric): 6.47 h; Tmax ([6]; PO, 10 mg/kg intragastric): 0.5 h; half-life ([6]; PO, 10 mg/kg intragastric): 2.46 h
9 | 0.014 | < 1 | 0.012 | < 5 | Cc1cc2cc(n1)-c1cnn(C3CC3)c1OCCC[C@@H](C)CN1/C(=N/C2=O)Nc2ccc(NCCN(C)C)cc21 [Example 17] | –
10 | 0.012 | < 1 | 0.0076 | < 5 | Cc1cc2cc(n1)-c1cnn(C)c1OCCC[C@@H](C1CC1)CN1/C(=N/C2=O)Nc2cc(NCCN(C)C)ccc21 [Example 42] | –
11 | 0.017 | < 1 | 0.013 | < 5 | Cc1cc2cc(n1)-c1cnn(C)c1OCCC[C@@H](C1CC1)CN1/C(=N/C2=O)Nc2ccc(NCCN3CCCCC3)cc21 [Example 83] | –
12 | 0.03 | < 1 | 0.018 | < 5 | Cc1cc2cc(n1)-c1cnn(C)c1OCCC[C@@H](C1CC1)CN1/C(=N/C2=O)Nc2cc(NCC3CCOCC3)ccc21 [Example 22] | –
13 | 0.022 | < 1 | 0.015 | < 5 | Cc1cc2cc(n1)-c1cnn(C)c1OCCC[C@@H](C1CC1)CN1/C(=N/C2=O)Nc2cc(NCC3COC3)ccc21 [Example 36] | –
14 | 0.022 | < 1 | 0.013 | < 5 | Cc1cc2cc(n1)-c1cnn(C)c1OCCC[C@@H](C1CC1)CN1/C(=N/C2=O)Nc2cc(NC(C)CN(C)C)ccc21 (some centres unmarked) [Example 62] | –
